US8877819B2, “Methods for treating heat stress and related compositions” (Georgetown University, priority 2008, dated 2014)

Target: T1, angiotensin converting enzyme (ACE) (Rattus norvegicus, UniProt P47820)
T1 construct: from tissue; host or cells: rat serum
T1 sequence (P47820 36-1313): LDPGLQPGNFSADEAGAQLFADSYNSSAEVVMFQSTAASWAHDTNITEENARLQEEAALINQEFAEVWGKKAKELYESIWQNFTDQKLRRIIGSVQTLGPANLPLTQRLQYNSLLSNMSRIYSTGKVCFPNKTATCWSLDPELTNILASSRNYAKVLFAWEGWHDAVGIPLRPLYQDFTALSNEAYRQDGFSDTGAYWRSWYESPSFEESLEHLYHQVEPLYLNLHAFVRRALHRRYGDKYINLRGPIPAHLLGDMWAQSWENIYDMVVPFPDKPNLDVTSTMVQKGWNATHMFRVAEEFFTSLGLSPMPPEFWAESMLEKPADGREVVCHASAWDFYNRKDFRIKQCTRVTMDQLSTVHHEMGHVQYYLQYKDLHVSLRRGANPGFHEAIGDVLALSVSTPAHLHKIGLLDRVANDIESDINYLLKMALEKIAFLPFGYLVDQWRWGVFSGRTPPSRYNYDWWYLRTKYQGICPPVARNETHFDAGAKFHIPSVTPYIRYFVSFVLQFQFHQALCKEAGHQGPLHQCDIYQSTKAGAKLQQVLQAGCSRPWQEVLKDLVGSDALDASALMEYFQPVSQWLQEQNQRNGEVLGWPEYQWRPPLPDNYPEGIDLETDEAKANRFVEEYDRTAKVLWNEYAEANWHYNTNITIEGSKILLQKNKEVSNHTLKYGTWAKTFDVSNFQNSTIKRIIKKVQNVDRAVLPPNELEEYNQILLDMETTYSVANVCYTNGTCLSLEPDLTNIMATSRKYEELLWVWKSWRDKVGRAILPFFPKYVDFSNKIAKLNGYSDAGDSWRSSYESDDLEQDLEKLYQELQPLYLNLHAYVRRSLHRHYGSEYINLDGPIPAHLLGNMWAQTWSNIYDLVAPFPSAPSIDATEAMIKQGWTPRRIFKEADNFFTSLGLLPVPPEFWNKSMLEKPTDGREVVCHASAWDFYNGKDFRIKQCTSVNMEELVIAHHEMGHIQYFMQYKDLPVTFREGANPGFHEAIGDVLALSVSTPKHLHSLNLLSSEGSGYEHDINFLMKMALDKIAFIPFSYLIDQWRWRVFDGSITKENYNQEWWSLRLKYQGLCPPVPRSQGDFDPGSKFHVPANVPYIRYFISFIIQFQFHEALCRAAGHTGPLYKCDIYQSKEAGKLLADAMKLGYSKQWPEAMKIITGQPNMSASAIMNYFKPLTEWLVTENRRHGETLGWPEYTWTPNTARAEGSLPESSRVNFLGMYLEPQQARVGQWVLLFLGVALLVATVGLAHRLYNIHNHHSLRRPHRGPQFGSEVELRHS
Assay: Serum Angiotensin Converting Enzyme (ACE) activity
Format: in vivo, Zucker Fatty Rats
Method: Serum ACE activity was measured by a commercial kit (Sigma Co. Ltd, St. Louis, Mo.). This spectrophotometric method utilizes the synthetic tripeptide substrate N-[3-(2-furyl)acryloyl]-phenylalanylglcylglcine (FAPGG). FAPGG is hydrolyzed by ACE to furylacryloylphenylalanine (FAP) and glycylglycine. Hydrolysis of FAPGG results in a decreased absorbency at 340 nm. Serum ACE activity was determined by comparing the sample reaction rate to that obtained with an appropriate ACE calibrator.

CC1=C(/C=C/C(C)=C/C=C/C(C)=C/C=C/C=C(C)/C=C/C=C(C)/C=C/C2=C(C)C(=O)[C@@H](O)CC2(C)C)C(C)(C)C[C@H](O)C1=O [Asta, astaxanthin]
ACE activity (Experiment 2, Hi Asta, astaxanthin 25 mg/kg in feed): 24.2 ± 1.3 units
ACE activity (Experiment 2, Lo Asta, astaxanthin 5 mg/kg in feed): 27.1 ± 1.4 units
